# In patent US10597366B2, “Aryl ethers and uses thereof” (Peloton Therapeutics, Inc., priority 2013, dated 2020):
# Where two headings read alike, the source gives them in different places.
# Tests used:
# [1] = tested on: 786-O-Hif-Luc cells (luciferase gene driven by multiple HIF responsive elements); experiment: Luciferase Assay; format: cell-based; settings: 24 h, read-out: Mean Luciferease EC50
# Experimental: A pool of infected cells were then selected against 2 μg/mL of puromycin (P8833, Sigma) for 10 days followed by limited dilution to select single clones.
# Each concentration was tested in triplicate. After about 24 hours, luciferase activity was determined using ONE-Glo Luciferase Assay Reagent (E6110, Promega) following the manufacturer's recommended procedure. EC50 were calculated by using Dotmatics software.
# [2] = tested on: VEGFA concentration in medium of 786-O cells; experiment: VEGF ELISA Assay; format: cell-based; settings: Homo sapiens
# Experimental: Each concentration had duplicated wells. About 20 hours later, medium was removed by suction and each well was supplied with 180 μL of growth medium. About 20 μl freshly-made 10× compound stocks were added to each well. […] The EC50 was calculated by GraphPad Prism using the dose-response-inhibition (four parameter) equation. The cell seeded plate was then subjected to CellTiter-Glo luminescence cell viability assay (Promega) by adding 50 μL of Celltiter Glo reagent into each well and shaking the plate for 8 minutes at 550 rpm (Thermomixer R, Eppendorf) then read luminescence signal in plate reader (3 second delay, 0.5 second/well integration time, Synergy 2 multi Detection Microplate reader) immediately.
# [3] = tested on: HIF-2α HIS TAG-PASB Domain; experiment: HIF-2α Scintillation Proximity Assay (SPA); format: binding; settings: compounds listed by structure and IUPAC name
# Experimental: The percent inhibition was determined and IC50 values were calculated using the Dotmatics system based on the following equation: % inhibition=[(high control sample)/(high control low control)]×100.
# [4] = 786-O-Hif-Luc cells, about 24 hours
# [5] = 786-0, 786-O cells, read-out: Mean VEGF ELISA EC50
# [6] = 786-0, read-out: Mean VEGF ELISA EC50
"EC50 [1, 4]","EC50 [2, 5]",Structure (SMILES),also measured
5 nM,7 nM,"CS(=O)(=O)c1ccc(Oc2cc(F)cc(F)c2)c2c1C(O)C(F)(F)C2 (stereo not drawn) [Compound 159, 4-(3,5-Difluorophenoxy)-2,2-difluoro-7-(methylsulfonyl)-2,3-dihydro-1H-inden-1-ol]",–
11 nM,13 nM,"O=S(=O)(c1ccc(Oc2cncc(Cl)c2)c2c1[C@H](O)C(F)(F)C2)C(F)(F)F [Compound 186, (S)-4-((5-Chloropyridin-3-yl)oxy)-2,2-difluoro-7-((trifluoromethyl)sulfonyl)-2,3-dihydro-1H-inden-1-ol]",–
46 nM,47 nM,"O=S(=O)(c1ccc(Oc2ccc(F)c(F)c2)c2c1[C@H](O)C(F)(F)C2)C(F)F [Compound 196, (S)-7-((Difluoromethyl)sulfonyl)-4-(3,4-difluorophenoxy)-2,2-difluoro-2,3-dihydro-1H-inden-1-ol]",–
5 nM,1 nM,"O=S(=O)(CF)c1ccc(Oc2cc(F)cc(F)c2)c2c1[C@H](O)C(F)(F)C2 [Compound 64, (S)-4-(3,5-Difluorophenoxy)-2,2-difluoro-7-((fluoromethyl)sulfonyl)-2,3-dihydro-1H-inden-1-ol]",–
–,–,"O=S(=O)(c1ccc(Oc2cc(F)cc(Cl)c2)c2c1[C@H](O)CC2)C(F)F [Compound 1, (R)-4-(3-chloro-5-fluorophenoxy)-7-((difluoromethyl)sulfonyl)-2,3-dihydro-1H-inden-1-ol]","EC50 [2, 6]: 250 nM"
91 nM,52 nM,"CS(=O)(=O)c1ccc(Oc2cncc(C#N)c2)c2c1[C@H](O)C(F)(F)[C@@H]2F [Compound 342, 5-(((1S,3R)-2,2,3-trifluoro-1-hydroxy-7-(methylsulfonyl)-2,3-dihydro-1H-inden-4-yl)oxy)nicotinonitrile]",–
17 nM,33 nM,"O=S(=O)(c1ccc(Oc2cc(F)cc(Cl)c2)c2c1C(O)C(F)(F)C2)C(F)F (stereo not drawn) [Compound 8, 4-(3-chloro-5-fluoro-phenoxy)-7-(difluoromethylsulfonyl)-2,2-difluoro-indan-1-ol]",–
4.6 nM,6.2 nM,"N#Cc1cc(F)cc(Oc2ccc(C(F)(F)F)c3c2CC(F)(F)[C@H]3O)c1 [Compound 273, 3-[(1S)-2,2-Difluoro-1-hydroxy-7-(trifluoromethyl)indan-4-yl]oxy-5-fluoro-benzonitrile]",–
12 nM,17 nM,"CS(=O)(=NC#N)c1ccc(Oc2cc(F)cc(C#N)c2)c2c1[C@H](O)C(F)(F)[C@@H]2F (single isomer, unassigned) [Compound 316]",–
–,–,"O=S(=O)(c1ccc(Oc2cc(F)cc(Cl)c2)c2c1C(O)CC2)C(F)F (stereo not drawn) [Compound 17, 4-(3-chloro-5-fluorophenoxy)-7-((difluoromethyl)sulfonyl)-2,3-dihydro-1H-inden-1-ol]","EC50 [2, 6]: 160 nM"
3300 nM,1580 nM,"N#Cc1c(S(=O)(=O)C(F)(F)F)ccc(Oc2cc(F)cc(Cl)c2)c1Br [Compound 98, 2-Bromo-3-(3-chloro-5-fluorophenoxy)-6-((trifluoromethyl)sulfonyl)benzonitrile]",–
420 nM,550 nM,"N#Cc1cccc(Oc2ccc(S(=O)(=O)C(F)(F)F)c(C#N)c2Br)c1 [Compound 99, 2-Bromo-3-(3-cyanophenoxy)-6-((trifluoromethyl)sulfonyl)benzonitrile]",–
66 nM,40 nM,"O=S(=O)(CF)c1ccc(Oc2cc(F)cc(F)c2)c2c1[C@H](O)CC2 [Compound 60, (R)-4-(3,5-Difluorophenoxy)-7-((fluoromethyl)sulfonyl)-2,3-dihydro-1H-inden-1-ol]",–
1400 nM,680 nM,"N#Cc1cc(F)cc(Oc2ccc(S(=O)(=O)C(F)F)cc2Br)c1 [Compound 132, 3-(2-Bromo-4-((difluoromethyl)sulfonyl)phenoxy)-5-fluorobenzonitrile]",–
9 nM,6 nM,"O=S(=O)(c1ccc(Oc2cc(F)cc(F)c2)c2c1C(O)C(F)(F)C2)C(F)F (stereo not drawn) [Compound 9, 7-(difluoromethylsulfonyl)-4-(3,5-difluorophenoxy)-2,2-difluoro-indan-1-ol]",–
–,1600 nM,"O=S(=O)(c1ccc(Oc2cc(F)cc(Cl)c2)c(Br)c1Cl)C(F)(F)F [Compound 179, 2-Bromo-3-chloro-1-(3-chloro-5-fluorophenoxy)-4-((trifluoromethyl)sulfonyl)benzene]",–
4 nM,11 nM,"CS(=O)(=O)c1ccc(Oc2cc(F)cc(F)c2)c2c1[C@H](O)C(F)(F)C2 [Compound 161, (S)-4-(3,5-Difluorophenoxy)-2,2-difluoro-7-(methylsulfonyl)-2,3-dihydro-1H-inden-1-ol]",–
3 nM,4 nM,"N#Cc1cc(F)cc(Oc2ccc(S(=O)(=O)C(F)(F)F)c3c2CC(F)(F)[C@H]3O)c1 [Compound 185, (S)-3-((2,2-Difluoro-1-hydroxy-7-((trifluoromethyl)sulfonyl)-2,3-dihydro-1H-inden-4-yl)oxy)-5-fluorobenzonitrile]",–

"EC50 [1, 4]","EC50 [2, 5]",Structure (SMILES),also measured
–,640 nM,"O=S(=O)(c1ccc(Oc2cc(F)cc(Cl)c2)c(Br)c1CO)C(F)(F)F [Compound 102, (2-Bromo-3-(3-chloro-5-fluorophenoxy)-6-((trifluoromethyl)sulfonyl)phenyl)methanol]",–
–,–,"O=S(=O)(c1ccc(Oc2cc(F)cc(Cl)c2)c(C(F)F)c1)C(F)(F)F [Compound 124, 1-(3-Chloro-5-fluorophenoxy)-2-(difluoromethyl)-4-((trifluoromethyl)sulfonyl)benzene]","EC50 [1]: 330 nM; EC50 [2, 6]: 400 nM"
32 nM,35 nM,"O=S(=O)(c1ccc(Oc2cc(F)cc(F)c2)c2c1[C@H](O)CC2)C(F)(F)F [Compound 55, (R)-4-(3,5-Difluorophenoxy)-7-((trifluoromethyl)sulfonyl)-2,3-dihydro-1H-inden-1-ol]",–
22 nM,62 nM,"CS(=O)(=O)c1ccc(Oc2cc(F)cc(Br)c2)c2c1[C@H](O)C(F)(F)C2 [Compound 304, (S)-4-(3-bromo-5-fluorophenoxy)-2,2-difluoro-7-(methylsulfonyl)-2,3-dihydro-1H-inden-1-ol]",–
9 nM,26 nM,"O=S(=O)(c1ccc(Oc2cncc(F)c2)c2c1[C@H](O)C(F)(F)C2)C(F)(F)F [Compound 309, (S)-2,2-difluoro-4-((5-fluoropyridin-3-yl)oxy)-7-((trifluoromethyl)sulfonyl)-2,3-dihydro-1H-inden-1-ol]",–
–,81 nM,CS(=O)(=NC#N)c1ccc(Oc2cc(F)cc(C#N)c2)c2c1[C@H](O)C(F)(F)C2 (stereo partly drawn) [Compound 240],–
–,–,"N#Cc1ccc(Oc2cc(F)cc(F)c2)c2c1[C@H](O)C(F)(F)C2 [Compound 67, (S)-7-(3,5-Difluorophenoxy)-2,2-difluoro-3-hydroxy-2,3-dihydro-1H-indene-4-carbonitrile]","EC50 [2, 6]: 220 nM"
–,–,O=S(=O)(c1ccc(Oc2cc(F)cc(Cl)c2)c(Cl)c1CNCC1CCOC1)C(F)F (stereo not drawn) [1-[2-chloro-3-(3-chloro-5-fluoro-phenoxy)-6-(difluoromethylsulfonyl)phenyl]-N-(tetrahydrofuran-3-ylmethyl)methanamine],IC50 [3]: > 100000 nM
–,–,N=S(=O)(c1ccc(Cl)c(Br)c1Oc1cc(F)cc(Cl)c1)C(F)(F)F (stereo not drawn) [[3-bromo-4-chloro-2-(3-chloro-5-fluoro-phenoxy)phenyl]-imino-oxo-(trifluoromethyl)-λ^6-sulfane],IC50 [3]: > 100000 nM
–,1870 nM,"N#Cc1cc(S(=O)(=O)C(F)F)ccc1Oc1cc(F)cc(Cl)c1 [Compound 133, 2-(3-Chloro-5-fluorophenoxy)-5-((difluoromethyl)sulfonyl)benzonitrile]",–
–,–,Cn1cc(Oc2ccc(S(=O)(=O)C(F)(F)F)c3c2CCC3O)cn1 (stereo not drawn) [4-(1-methylpyrazol-4-yl)oxy-7-(trifluoromethylsulfonyl)indan-1-ol],IC50 [3]: > 100000 nM
–,–,"O=S(=O)(c1ccc(Oc2cc(F)cc(Cl)c2)c2c1C1(CC2)OCCO1)C(F)F [4′-(3-chloro-5-fluoro-phenoxy)-7′-(difluoromethylsulfonyl]spiro[1,3-dioxolane-2,1′-indane]]",IC50 [3]: > 100000 nM
–,–,NC(=O)c1c(S(=O)(=O)C(F)F)ccc(Oc2cc(F)cc(Cl)c2)c1Br [2-bromo-3-(3-chloro-5-fluoro-phenoxy)-6-(difluoromethylsulfonyl)benzamide],IC50 [3]: > 100000 nM
–,–,O=C(NO)c1c(S(=O)(=O)C(F)F)ccc(Oc2cc(F)cc(Cl)c2)c1Br [2-bromo-3-(3-chloro-5-fluoro-phenoxy)-6-(difluoromethylsulfonyl)benzenecarbohydroxamic acid],IC50 [3]: > 100000 nM
–,–,"CN(C)[S+]([O-])c1ccc(Oc2cc(F)cc(Cl)c2)c(Br)c1 (stereo not drawn) [3-bromo-4-(3-chloro-5-fluoro-phenoxy)-N,N-dimethyl-benzenesulfinamide]",IC50 [3]: > 100000 nM
–,–,COC(=O)c1cc(F)cc(Oc2ccc(S(=O)(=O)C(F)(F)F)cc2Br)c1 [methyl 3-[2-bromo-4-(trifluoromethylsulfonyl)phenoxy]-5-fluoro-benzoate],IC50 [3]: > 100000 nM
–,–,Cc1ccccc1Oc1ccc(S(=O)(=O)C(F)(F)F)cc1Br [2-bromo-1-(2-methylphenoxy)-4-(trifluoromethylsulfonyl)benzene],IC50 [3]: > 100000 nM
